Measurements as given in ChEMBL document CHEMBL1137117, “Cinnamic acid esters as potent inhibitors of fungal 17beta-hydroxysteroid dehydrogenase--a model enzyme of the short-chain dehydrogenase/reductase superfamily” (Bioorg Med Chem Lett, 2004).

Legend:
Set-up in all cases: species or system Curvularia lunata
[1] = target: T1, 17-beta-hydroxysteroid-dehydrogenase (Cochliobolus lunatus, UniProt O93874); test: Inhibitory activity against 17 beta-hydroxysteroid dehydrogenase catalysed reduction reaction; NI=no inhibition
T1 sequence (O93874 whole entry): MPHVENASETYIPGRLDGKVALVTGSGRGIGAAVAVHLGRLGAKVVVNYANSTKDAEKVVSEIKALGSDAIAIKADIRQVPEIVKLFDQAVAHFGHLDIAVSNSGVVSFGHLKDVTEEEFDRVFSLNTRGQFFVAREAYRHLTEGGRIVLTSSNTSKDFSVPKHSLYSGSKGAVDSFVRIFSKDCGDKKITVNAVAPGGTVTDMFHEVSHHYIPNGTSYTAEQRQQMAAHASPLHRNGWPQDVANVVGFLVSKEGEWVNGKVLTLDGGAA

[2] = target: T1, 17-beta-hydroxysteroid-dehydrogenase; test: Inhibitory activity against 17 beta-hydroxysteroid dehydrogenase catalysed oxidation reaction; NI=no inhibition
[3] = target: T1, 17-beta-hydroxysteroid-dehydrogenase; test: Inhibitory activity against 17 beta-hydroxysteroid dehydrogenase catalysed reduction reaction
[4] = target: T1, 17-beta-hydroxysteroid-dehydrogenase; test: Inhibitory activity against 17 beta-hydroxysteroid dehydrogenase catalysed oxidation reaction

SMILES | IC50 [1] | IC50 [2] | IC50 ([3]; read-out: IC50) | IC50 [4] | IC50 [3]
COc1cc(COC(=O)c2cc3ccccc3oc2=O)cc(OC)c1OC | Not Active | Not Active |  |  | 
O=C(/C=C/c1ccccc1)OCCN1C(=O)c2ccccc2C1=O |  |  | 90 µM | 5 µM | 
COc1cccc(OC(=O)/C=C/c2ccccc2)c1 |  |  |  | 135 µM | No inhibition
O=C(OCc1ccccc1)c1cc2ccccc2oc1=O |  |  | 8 µM | 2.7 µM | 
CC(=O)Nc1ccc(OC(=O)/C=C/c2ccccc2)cc1 |  |  | > 200 µM | > 200 µM | 
N#Cc1ccc(OC(=O)/C=C/c2ccccc2)cc1 | Not Active |  |  | 13 µM | 
CCCCCCCC(=O)Nc1ccc(OC(=O)/C=C/c2ccccc2)cc1 |  |  | > 200 µM | > 200 µM | 
O=C(/C=C/c1ccccc1)Oc1ccccc1 [PHENYL CINNAMATE] |  |  | > 200 µM | 26 µM | 
O=C(/C=C/c1ccccc1)Oc1cccc2ccccc12 |  |  |  | 10 µM | 
O=C(/C=C/c1ccccc1)OC1CCCCC1 | Not Active | Not Active |  |  | 
COc1cc(COC(=O)/C=C/c2ccccc2)cc(OC)c1OC | Not Active |  |  | 14 µM | 
O=C(/C=C/c1ccccc1)OCN1C(=O)c2ccccc2C1=O | Not Active |  |  | 10 µM | 
O=C(OCCN1C(=O)c2ccccc2C1=O)c1cc2ccccc2oc1=O | Not Active | Not Active |  |  | 
O=C(OCN1C(=O)c2ccccc2C1=O)c1cc2ccccc2oc1=O | Not Active | Not Active |  |  | 
O=C(/C=C/c1ccccc1)OCc1cccc(Oc2ccccc2)c1 | Not Active |  |  | 130 µM | 
O=C(/C=C/c1ccccc1)OCc1ccccc1 [BENZYL CINNAMATE] |  |  | 7 µM | 0.7 µM | 
